Reference: the NIST ThermoML archive (doi:10.1016/j.jct.2008.07.013)
Numbers after ± are expanded uncertainties.

Columns and labels:
[1] = Liquid, Alternating current cell with electrodes
[2] = molar heat capacity at constant pressure; settings: 101.33 kPa, Liquid, Small sample (50 mg) DSC

CCn1cc[n+](C)c1.COCCOCCOS(=O)(=O)[O-] [1-ethyl-3-methylimidazolium 2-(2-methoxyethoxy) ethylsulfate]
Settings | electrical conductivity, [1] [S/m] | molar heat capacity at constant pressure, [2] [J/K/mol]
293.2 K | 0.11 ± 0.031 | –
298.2 K | 0.147 ± 0.025 | –
303.2 K | 0.194 ± 0.025 | 526.38 ± 69
308.2 K | 0.244 ± 0.028 | 527.94 ± 69
313.2 K | 0.307 ± 0.036 | 529.49 ± 69
318.2 K | 0.378 ± 0.031 | 531.04 ± 70
323.2 K | 0.459 ± 0.033 | 532.59 ± 70
328.2 K | 0.545 ± 0.033 | 533.83 ± 70
333.2 K | 0.641 ± 0.031 | 535.7 ± 70
338.2 K | – | 537.25 ± 70
343.2 K | 0.859 ± 0.036 | 538.8 ± 70
348.2 K | – | 540.66 ± 71
353.2 K | 1.12 ± 0.036 | 542.21 ± 71
358.2 K | – | 544.08 ± 71

CCn1cc[n+](C)c1.F[B-](F)(F)F [1-ethyl-3-methylimidazolium tetrafluoroborate]
Settings | electrical conductivity, [1] [S/m] | molar heat capacity at constant pressure, [2] [J/K/mol]
293.2 K | 1.38 ± 0.025 | –
298.2 K | 1.57 ± 0.028 | –
303.2 K | 1.789 ± 0.008 | 306.26 ± 40
308.2 K | 2.04 ± 0.028 | 308.44 ± 40
313.2 K | 2.32 ± 0.036 | 310.61 ± 41
318.2 K | 2.59 ± 0.036 | 312.79 ± 41
323.2 K | 2.91 ± 0.033 | 314.38 ± 41
328.2 K | 3.25 ± 0.033 | 315.37 ± 41
333.2 K | 3.59 ± 0.031 | 316.36 ± 41
338.2 K | – | 318.34 ± 42
343.2 K | 4.35 ± 0.036 | 319.33 ± 42
348.2 K | – | 321.3 ± 42
353.2 K | 5.18 ± 0.031 | 322.89 ± 42
358.2 K | – | 323.48 ± 42

CCn1cc[n+](C)c1.N#CN=C=[N-] [1-ethyl-3-methylimidazolium dicyanamide]
Settings | electrical conductivity, [1] [S/m] | molar heat capacity at constant pressure, [2] [J/K/mol]
293.2 K | 1.89 ± 0.036 | –
298.2 K | 2.2 ± 0.042 | –
303.2 K | 2.55 ± 0.036 | 328.01 ± 43
308.2 K | 2.9 ± 0.028 | 329.96 ± 43
313.2 K | 3.29 ± 0.036 | 332.97 ± 44
318.2 K | 3.68 ± 0.036 | 335.1 ± 44
323.2 K | 4.1 ± 0.039 | 338.64 ± 44
328.2 K | 4.54 ± 0.031 | 340.77 ± 44
333.2 K | 5.02 ± 0.031 | 342.72 ± 45
338.2 K | – | 344.49 ± 45
343.2 K | 5.93 ± 0.033 | 346.44 ± 45
348.2 K | – | 348.92 ± 46
353.2 K | 6.86 ± 0.028 | 351.58 ± 46
358.2 K | – | 354.24 ± 46

CCn1cc[n+](C)c1.O=S(=O)([O-])C(F)(F)F [1-ethyl-3-methylimidazolium trifluoromethanesulfonate]
Settings | electrical conductivity, [1] [S/m] | molar heat capacity at constant pressure, [2] [J/K/mol]
293.2 K | 0.834 ± 0.028 | –
298.2 K | 0.979 ± 0.028 | –
303.2 K | 1.16 ± 0.033 | 379.42 ± 50
308.2 K | 1.34 ± 0.036 | 381.5 ± 50
313.2 K | 1.52 ± 0.031 | 383.33 ± 50
318.2 K | 1.74 ± 0.031 | 385.41 ± 50
323.2 K | 1.94 ± 0.033 | 387.49 ± 51
328.2 K | 2.17 ± 0.039 | 389.57 ± 51
333.2 K | 2.42 ± 0.036 | 391.65 ± 51
338.2 K | – | 393.74 ± 52
343.2 K | 2.94 ± 0.028 | 395.82 ± 52
348.2 K | – | 397.9 ± 52
353.2 K | 3.51 ± 0.036 | 399.72 ± 52
358.2 K | – | 401.8 ± 53

CCOS(=O)(=O)[O-].CCn1cc[n+](C)c1 [1-ethyl-3-methylimidazolium ethyl sulfate]
Settings | electrical conductivity, [1] [S/m] | molar heat capacity at constant pressure, [2] [J/K/mol]
293.2 K | 0.31 ± 0.022 | –
298.2 K | 0.398 ± 0.025 | –
303.2 K | 0.493 ± 0.008 | 429.81 ± 56
308.2 K | 0.603 ± 0.028 | 431.7 ± 56
313.2 K | 0.722 ± 0.028 | 435.01 ± 57
318.2 K | 0.852 ± 0.028 | 437.14 ± 57
323.2 K | 1 ± 0.025 | 441.39 ± 58
328.2 K | 1.17 ± 0.025 | 444.46 ± 58
333.2 K | 1.34 ± 0.025 | 447.3 ± 59
338.2 K | – | 450.13 ± 59
343.2 K | 1.74 ± 0.028 | 452.97 ± 59
348.2 K | – | 456.51 ± 60
353.2 K | 2.15 ± 0.028 | 461 ± 60
358.2 K | – | 463.6 ± 61
